Inconclusive results are not listed. The source made the active and inactive calls.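 How the source made its calls: active means compounds lowering the luciferase signal with a fitted half-maximal dose at most twice their top valid dose (cut at about 30 µM in these data); inconclusive means flat fits with moderate signal loss, or poor fits; inactive means the rest.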 *1 amine or outer side, *2 acyl side, *3 side chain or, on linkers, in order; H or OH if unused. Where a SMILES comes first, the peptide text is derived from it. Bridges are numbered along the chain shown (N, C = ends). [ ]: non-standard residue; d: D form. ξ: configuration not given here. X1 = CC[C@H](CCC[C@@H](O)[C@@H](C)C(=O)O[C@H](C)[C@@H](C)C/C=C(C)/C(=C\C(=O)[*:1])OC)O[*:2]; NMeξIle = CC[C@H](C)C(NC)C(=O)O; NMeV = CN[C@H](C(=O)O)C(C)C; NMeS = CN[C@@H](CO)C(=O)O

The test deals with Clone20 osteoblast Shn3 3'UTR firefly luciferase, 24 h. Description: Schnurri-3 3'UTR-luciferase signal suppressors – cell-based, Clone20 osteoblasts, luminescence, dry powder, set 2, dose response (AID 743417).
In the case of `O=C(NCc1ccc2c(c1)OCO2)c1nc(S(=O)(=O)Cc2ccccc2F)ncc1Cl`, the AC50 – broadly, the concentration giving half of the maximal activity seen – is 5.19 µM.
Next, `CSc1nnc(NC(=O)c2nc(S(=O)(=O)Cc3ccc(C)cc3)ncc2Cl)s1`: 3.18 µM; `N#Cc1ccc(NC(=O)Nc2ccc(Oc3ccc(NC(=O)Nc4ccc(C#N)cc4)cc3)cc2)cc1`: 2.68 µM; `Cc1ccc(N2C(=O)c3cccc4c([N+](=O)[O-])ccc(c34)C2=O)c2cccnc12`: 5.68 µM.
`Cc1ccc(S(=O)(=O)NCc2ccncc2)cc1C`: the AC50 was 0.585 µM.
Next, `Cc1cccc2sc(NNC(=O)c3ccc(S(=O)(=O)N4CC(C)CC(C)C4)cc3)nc12` (stereo not given): 2.57 µM; `Cc1cc(Cl)n2c(nc3cc(F)c(F)cc32)c1C#N`: 3.56 µM.
With `Cc1ccc(C)c(S(=O)(=O)N2CCN(c3ncnc4sccc34)CC2)c1`, the concentration at half-maximal activity (AC50) is 0.631 µM.
As for `COc1ccc(OCC(=O)NNC(=S)NC(=O)c2ccc(Br)o2)cc1`, the AC50 was 5.27 µM.
Next, `CC(C)(C)n1ncc2c(=O)n(Cc3cccc(Cn4cnc5c(cnn5C(C)(C)C)c4=O)c3F)cnc21`: 1.09 µM; `CC(=O)N(CCc1ccccc1)c1ccc2c(c1)C1CC2CCN1C(=O)OCc1ccccc1` (stereo not given): 14.3 µM.
In the case of `COc1ccc(C(=O)/C=C/C(=O)N(CC(=O)NCCC(C)C)Cc2cccs2)c(O)c1`, the half-maximal activity concentration (AC50) is 3.49 µM.
Take `COc1ccc(Cn2c(SCc3cc(C)ccc3C)nc3cc(OC)c(OC)cc3c2=N)cc1`: the AC50 was 7.91 µM.
Next, `O=C1NC2C(=CC(O)C(O)C2O)c2cc3c(c(O)c21)OCO3` (stereo not given): below 0.26 µM.
Next, `Cc1nn(Cc2noc(C(=O)NC3CCC(C)CC3)n2)c(C)c1Br` (stereo not given): 3.28 µM; `C=CCC[C@H](Cc1ccc(F)cc1)C(=O)OC[C@H](Cc1c[nH]c2ccccc12)NC(=O)[C@@H](CC=C)CC(=O)N[C@H](CO)Cc1ccccc1`: 4.44 µM; `Cc1cccc(-n2ncc(Cl)c(Cl)c2=O)c1`: 5.8 µM.
Next, `O=c1c2ccccc2sc2ccc(C#CC3(O)CCCCC3)cc12`: below 0.26 µM.
With `Cc1ccc(NC(=O)C2CCN(S(=O)(=O)c3ccc4c(c3)NC(=O)C(C)S4)CC2)cc1C` (stereo not given), the AC50 was 2.61 µM.
Next, `O=C(c1ccoc1)N1CCN(c2cc(-c3cccc(F)c3)nc3cc(-c4cccc(Cl)c4)nn23)CC1`: 9.78 µM; `Cc1ccc(-c2csc(N3CCC(NS(=O)(=O)c4ccc5c(c4)OCCO5)CC3)n2)cc1`: 2.15 µM; `CC(C)(C)C(=O)N1CCN(c2ccc(NC(=O)c3ccc([N+](=O)[O-])o3)cc2)CC1`: 2.45 µM.
The result for `Cn1nnnc1Sc1ncnc2scc(Br)c12` reads 6.51 µM; that for `CCCCNc1c(-c2ccc(OC)c(SC3CCCCC3)c2)nc2ccc(C)cn12`, 3.68 µM; that for `Cc1cccc(CS(=O)(=O)c2ncc(Cl)c(C(=O)NCc3ccccc3)n2)c1`, 2.94 µM.
In the case of `CC(C)(C)C(=O)Nc1cc2nn(-c3ccccc3)nc2cc1Cl`, the half-maximal activity concentration (AC50) was 5.16 µM.
Next, `Cc1cccc(C(=O)Nc2ccc(C(=O)/C=C/c3cccnc3)cc2)c1`: 6.23 µM.
Next, `CC(=O)NC(c1ccc(C(C)C)cc1)c1ccc2cccnc2c1O` (stereo not given): 0.528 µM; `COc1ccc(C2=Nn3c([n+](C)c4ccccc43)SC2)cc1`: 1.16 µM.
Turning to `CCOC(=O)C1(CCOc2ccccc2)CCN(Cc2ccc(OC)c(COC)c2)CC1`, the AC50 was 3.87 µM.
Next, `O=C(Nc1ccc([N+](=O)[O-])cc1)Nc1nc(-c2ccc(Cl)s2)cs1`: 3.19 µM; `CCOc1ccc(N2C(=O)CC(Sc3nnnn3-c3ccccc3)C2=O)cc1` (stereo not given): 11.5 µM; `O=C(CSc1nnc(-c2ccc(Cl)cc2Cl)n1C1CCCCC1)N1CCCC1`: > 70 µM (inactive).
The result for `N#C/C(=C(\O)Cc1ccccc1)c1nc2ccccc2[nH]1` reads > 70 µM (inactive).
Turning to `Cc1cc(C)nc(/N=C(\N)Nc2ccc(-c3ccccc3)cc2)n1`, the AC50 was 4.45 µM.
The result for `COCCn1c(C)cc(C2=NNC(=NC3CC3)SC2)c1C` reads below 0.26 µM; that for `Cc1ccc2c(c1)c(C1=c3ccccc3=NC1=O)c(O)n2C`, 8.85 µM.
The result for `CCn1c(/C=C/c2ccc([N+](=O)[O-])o2)nc2ccccc2c1=O` reads 4.51 µM.
Turning to `CC(C)c1nnc(NC(=O)c2nc(S(=O)(=O)Cc3ccc(F)cc3)ncc2Cl)s1`, the AC50 is 2.83 µM.
Next, `O=C(OCCC12CC3CC(CC(C3)C1)C2)c1ccc(NCc2cc(O)ccc2O)cc1`: 1.82 µM.
The result for `Cc1cc(C)c(S(=O)(=O)N2Cc3ccccc3-n3nncc3C2)c(C)c1` reads 4.36 µM; that for `CCCn1c(NC(=O)c2ccc(Cl)c(S(=O)(=O)N3CCCC3)c2)nc2ccccc21`, 8.39 µM; that for `O=C(c1ccc(Br)cc1)C(CN1CCOCC1)c1ccccc1` (stereo not given), 9.4 µM.
Next, `O=S(=O)(c1cc(F)ccc1F)N1CCN(c2ncnc3ccccc23)CC1`: 1.85 µM.
For `CC(C)N(CCC(=O)c1ccc2ccccc2c1)Cc1ccccc1`, the AC50 is 4.22 µM.
Next, `O=[N+]([O-])/C=C/c1cn(Cc2ccc(Cl)cc2)c2ccccc12`: 8.32 µM; `COC(=O)c1ccccc1NC(=O)c1nc(S(=O)(=O)Cc2ccccc2)ncc1Cl`: 0.428 µM.
Regarding `CC(C)c1nnc(NC(=O)CCS(=O)(=O)c2nc(-c3cccs3)cc(C(F)(F)F)n2)s1`, the AC50 is 3.02 µM.
The result for `COCCOc1nc2c(c(=O)n(C)c(=O)n2C)n1Cc1cccc(OC)c1` reads 2.23 µM; that for `CC[C@@H]1CCC[C@@H](O)[C@@H](C)C(=O)O[C@H](C)[C@@H](C)C/C=C(C)/C(OC)=C\C(=O)N(C)C([C@@H](C)CC)C(=O)N(C)[C@@H](C(C)C)C(=O)N(C)[C@@H](COC)C(=O)N2CCC[C@H]2C(=O)N(C)[C@@H](C(C)C)C(=O)N2CCC[C@H]2C(=O)O1` (stereo not given in full) ([NMeξIle][NMeV][NMeS](Me)P[NMeV]P; linker N-C via X1), below 0.26 µM; that for `Cc1cc(Cl)n2c(nc3ccccc32)c1C#N`, 1.85 µM.
Next, `CCOc1ccccc1Nc1cc(C)nc2ccccc12`: 8.14 µM; `O=c1oc2ccccc2c(Cl)c1CN1CCCCC1`: 4.99 µM; `O=[N+]([O-])c1c(Nc2cccc(O)c2)cc(Cl)c2nonc12`: 0.683 µM.
The result for `CN(Cc1ccc(OC(F)F)cc1)C(=O)c1cccc(S(=O)(=O)N2CCN(Cc3ccccc3)CC2)c1` reads 2.37 µM.
Consider `CCCOc1ccccc1C1CC(=O)Nc2cc3c(cc21)OCCO3` (stereo not given), for which the AC50 is 3.66 µM.
The result for `NC(=O)CC(NC(=O)c1ccccc1)c1ccc(N2CCC(Cc3ccccc3)CC2)c([N+](=O)[O-])c1` (stereo not given) reads 2.61 µM; that for `COC(=O)C1=C(c2ccc(-c3ccccc3)c(F)c2)C[C@@H]2CC[C@H]1N2C(=O)NCC1CC1`, 4.32 µM.
With `Fc1ccc2[nH]c3c(N4CCSCC4)ncnc3c2c1`, the AC50 is 2.76 µM.
Next, `CC(O)CC(=O)OC[C@]12CC[C@H]3[C@@](C)(CC[C@H]4C(C)(C)CCC[C@]34C)[C@@H]1CC(C1=CC(=O)OC1O)O2` (stereo not given in full): 3.75 µM; `CCOC(=O)C1CCN(c2cc3c(cc2NC(=O)c2ccccc2Br)n(C)c(=O)n3C)CC1`: 21.3 µM.
Next, `COc1ccccc1NS(=O)(=O)c1cccc(C(=O)NC2CCN(Cc3ccccc3)CC2)c1`: 1.95 µM; `CCC(C)NS(=O)(=O)c1ccc(S(=O)(=O)N2CCCC3(CCCCC3)C2)cc1` (stereo not given): 3.44 µM; `Cc1cccc(C)c1NC(=O)CN(C)C(=O)c1cccc(S(=O)(=O)N2CCN(c3ccc(F)cc3)CC2)c1`: 2.2 µM.
Next, `O=[N+]([O-])c1ccc(S(=O)(=O)c2ccccc2)nc1`: 1.74 µM.
As to `Cc1ccc(C)c(NC(=O)CN(C)C(=O)c2cccc(S(=O)(=O)N3CCN(Cc4ccccc4)CC3)c2)c1`, the AC50 was 3.5 µM.
Next, `Cc1nn(Cc2ccc(Cl)cc2)c(C)c1NC(=O)c1cc(C(C)C)on1`: 6.2 µM.
As to `CC(C)(C)OC(=O)NCCCCCNC(=O)c1nc[nH]c1C(=O)NCc1ccc(CNC(=O)OC(C)(C)C)cc1`, the AC50 is 3.95 µM.
Next, `CCC(=O)c1cn(CC(=O)Nc2cccc(C)c2C)c2ccccc12`: 1.52 µM; `CCOc1cc(S(=O)(=O)NCc2ccncc2)ccc1Cl`: below 0.26 µM.
Next, `CCOc1cc(N2CCOCC2)c(OCC)cc1NC(=O)c1cc(-c2ccco2)nc2ccccc12`: 8.94 µM; `Cc1ccc(C(=O)OCn2ncc(Cl)c(Cl)c2=O)cc1`: 5.07 µM.
Take `C#CC(=O)N(c1cc(OC)ccc1OC)C(C(=O)NC1CCCC1)c1cccs1` (stereo not given): the AC50 is 4.57 µM.
Consider `CCOc1cc(N2CCOCC2)c(OCC)cc1NC(=O)COc1cccc2cccnc12`, for which the AC50 is 2.41 µM.
Regarding `CCOC(=O)c1c(CSCc2ccccc2)oc2ccc(O)c(CN(C)C)c12`, the AC50 was 9.79 µM.
Consider `O=C(c1ccc(S(=O)(=O)c2ccc(F)cc2)c([N+](=O)[O-])c1)N1CCCCCC1`, for which the AC50 is 2.38 µM.
Consider `COc1ccc(CNCCC(c2ccc(OC(C)C)cc2)c2ccccc2OC)cc1` (stereo not given), for which the AC50 is 3.86 µM.
Take `CC(C)CC(NC(=O)c1ccc(Cl)cc1)C(=O)OCC(=O)c1ccc2c(c1)NC(=O)CO2` (stereo not given): the AC50 was 4.01 µM.
The result for `Cc1sc2ncnc(NC3CCN(Cc4ccccc4)CC3)c2c1C` reads 1.02 µM; that for `O=C(Cc1ccc(Cl)cc1)Nc1ccc(N2CCN(C(=O)c3ccco3)CC2)cc1`, > 70 µM (inactive); that for `COc1ccc(CS(=O)(=O)/C(Cl)=C(/Cl)C(=O)Nc2ccc(OC)nc2)cc1`, below 0.26 µM.
`CC(C)OC(=O)c1ccc(NCc2cc(O)ccc2O)cc1Cl`: the AC50 is 2.15 µM.
Next, `CCCCCn1c(N2CCN(c3cccc(Cl)c3)CC2)nc2c1c(=O)[nH]c(=O)n2C`: 21.8 µM; `COc1ccc(-c2cc(C(F)(F)F)nc(S(C)(=O)=O)n2)cc1`: 4.46 µM.
Next, `Oc1ccc(-c2n[nH]c(C(F)(F)F)c2-c2ccccc2)c(O)c1`: 0.283 µM; `O=C(Nc1ccc(S(=O)(=O)N2CCCC2)cc1)c1ccc(CN2CCc3ccccc3C2)cc1`: 0.575 µM.
Next, `Cc1nc(N2CCN(C(=O)c3ccco3)CC2)c2c3c(sc2n1)CC(C)CC3` (stereo not given): 2.33 µM; `CC(C)Cc1ccc(C(C)C(=O)Nc2ccccc2O)cc1` (stereo not given): 1.89 µM.
Regarding `CN(C(=O)COc1ccccc1C(=O)NCCOc1ccccc1)c1ccccc1`, the AC50 was 1.57 µM.
Take `CCCCC(=O)NC(c1ccc(N(C)C)cc1)c1ccc2cccnc2c1O` (stereo not given): the AC50 was 0.98 µM.

Source of the values: PubChem BioAssay AID743417 (Broad Institute, 2014).
